Assays:
Type in all cases: cell-based
[1] = target: T1, human EGFR E746-A750 deletion and T790M Mutation (Homo sapiens, UniProt P00533, DEL746-750/T790M); assay: Ba/F3-EGFR-Del/T790M cell anti-proliferative assay (CellTiter 96 MTS, 72 h); conditions: Ba/F3-EGFR-Del/T790M cells
T1 construct: expressed in transfected cells; host or cells: Ba/F3 (murine pro-B) cells transduced with lentivirus from pLVX-IRES puro
Summary of the method: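 Compound exposure: 72 h, 37 °C, 4-fold series topping at 10,000 nM. Target cells are Ba/F3 transduced with EGFR exon 19 deletion plus T790M, selected by puromycin and IL-3 withdrawal. Viable cell number inferred from MTS metabolic conversion, A490 read 2 h after reagent addition.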

[2] = target: T2, human EGFR exon 20 insertion NPG (H773_V774insNPG) (Homo sapiens, UniProt P00533, INS772GNP); assay: Ba/F3-EGFR-Exon20-NPG cell anti-proliferative assay (CellTiter 96 MTS, 72 h); conditions: Ba/F3-EGFR-Exon20-NPG cells
T2 construct: expressed in transfected cells; host or cells: Ba/F3 (murine pro-B) cells transduced with lentivirus from pLVX-IRES puro
Summary of the method: (§1)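 Viable-cell readout used absorbance at 490 nm of MTS-derived formazan, 2 h after reagent addition, following 72 h compound treatment at 37 °C, 5% CO2. Cells: puromycin-selected, IL-3-depleted Ba/F3 expressing EGFR exon 20 ASV or NPG; dosing 4-fold series from 10,000 nM.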

[3] = target: T3, human EGFR L858R and T790M double mutation (Homo sapiens, UniProt P00533, L858R/T790M); assay: Ba/F3-EGFR L858R/T790M cell anti-proliferative assay (CellTiter 96 MTS, 72 h); conditions: Ba/F3-EGFR L858R/T790M cells
T3 construct: expressed in transfected cells; host or cells: Ba/F3 (murine pro-B) cells transduced with lentivirus from pLVX-IRES puro
T3 sequence (P00533 25-1210 T790M/L858R): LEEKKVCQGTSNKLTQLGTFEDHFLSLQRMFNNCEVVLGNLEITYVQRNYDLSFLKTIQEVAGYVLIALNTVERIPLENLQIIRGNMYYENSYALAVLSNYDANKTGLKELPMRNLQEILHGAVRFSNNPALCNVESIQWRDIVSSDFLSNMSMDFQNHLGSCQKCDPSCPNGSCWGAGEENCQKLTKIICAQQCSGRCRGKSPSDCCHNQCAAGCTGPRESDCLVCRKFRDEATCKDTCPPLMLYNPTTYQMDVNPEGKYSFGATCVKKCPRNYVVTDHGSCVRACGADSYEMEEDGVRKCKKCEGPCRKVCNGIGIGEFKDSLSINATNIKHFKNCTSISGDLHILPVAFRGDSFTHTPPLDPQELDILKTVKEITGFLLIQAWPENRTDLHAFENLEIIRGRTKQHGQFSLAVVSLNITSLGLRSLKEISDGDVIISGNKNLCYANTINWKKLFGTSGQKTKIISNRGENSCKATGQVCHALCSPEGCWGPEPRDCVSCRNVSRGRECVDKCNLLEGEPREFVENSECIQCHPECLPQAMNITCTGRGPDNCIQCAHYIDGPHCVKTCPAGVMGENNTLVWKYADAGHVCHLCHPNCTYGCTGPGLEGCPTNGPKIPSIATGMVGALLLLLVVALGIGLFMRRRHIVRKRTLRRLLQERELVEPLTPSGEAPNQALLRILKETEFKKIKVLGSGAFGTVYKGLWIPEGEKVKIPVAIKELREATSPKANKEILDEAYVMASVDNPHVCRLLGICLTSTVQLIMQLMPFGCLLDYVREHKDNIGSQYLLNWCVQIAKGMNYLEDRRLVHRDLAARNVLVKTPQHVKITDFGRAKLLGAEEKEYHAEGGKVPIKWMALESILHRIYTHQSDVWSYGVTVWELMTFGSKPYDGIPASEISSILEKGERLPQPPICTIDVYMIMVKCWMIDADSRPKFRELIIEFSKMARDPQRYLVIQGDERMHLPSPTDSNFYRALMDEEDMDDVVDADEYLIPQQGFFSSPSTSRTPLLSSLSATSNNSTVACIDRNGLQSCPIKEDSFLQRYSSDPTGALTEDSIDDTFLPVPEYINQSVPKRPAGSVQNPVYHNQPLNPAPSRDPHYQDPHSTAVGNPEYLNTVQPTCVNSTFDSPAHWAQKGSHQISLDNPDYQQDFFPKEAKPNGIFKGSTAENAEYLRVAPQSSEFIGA
Experimental: An expression vector, pLVX-IRES puro (Clontech) coding for human EGFR L858R and T790M double mutation, was transfected into HEK293 cells by the Trans-Lentiviral ORF Packaging System (Thermo Scientific), to produce virus encoding EGFR L858R and T790M double mutations. Ba/F3 (DSMZ) cells maintained in RPMI 1640 medium supplemented with 10% fetal bovine serum, 200 μM L-glutamine/l 200 μg/mL penicillin/200 μg/mL streptomycin (Life Technology) and 10 ng/mL IL-3 (R&D system), were infected by EGFR L858R and T790M double mutation virus and subsequently selected by puromycin (Life Technology) selection and IL-3 depletion. […] The anti-proliferative activity of compounds was determined as follows: BaF3-EGFR L858R/T790M cells seeded in 96 well plates (2500 cells/well) were treated with test compound (dissolved in DMSO) at a series of concentrations (4-fold dilution, top concentration: 10,000 nM). The plates were incubated for 72 h in a 37° C. incubator with 5% CO2, and the number of viable cells in each well were measured indirectly by CellTiter 96® Aqueous One Solution Cell Proliferation Assay (Promega; this assay is a colorimetric method for determining the number of viable cells through measurement of their metabolic activity by detection of enzymatic conversion of tetrazolium salts into blue formazan derivatives). Reagent (20 μL) was added into each well, and the plates were returned to the incubator for 2 h. The absorbance in each well was then measured at 490 nm using an Envision plate reader (Perkin Elmer).

[4] = target: T4, Her2 exon 20 YVMA insertion (A775_G776ins YVMA) (Homo sapiens, UniProt P04626, INS775YVMA); assay: Ba/F3-Her2 Exon20 YVMA cell anti-proliferative assay (CellTiter 96 MTS, 72 h); conditions: Ba/F3-Her2 Exon20 YVMA cells
T4 construct: expressed in transfected cells; host or cells: Ba/F3 (murine pro-B) cells transduced with lentivirus from pLVX-IRES puro
T4 sequence (P04626 with tags, fused parts or gaps INS775YVMA): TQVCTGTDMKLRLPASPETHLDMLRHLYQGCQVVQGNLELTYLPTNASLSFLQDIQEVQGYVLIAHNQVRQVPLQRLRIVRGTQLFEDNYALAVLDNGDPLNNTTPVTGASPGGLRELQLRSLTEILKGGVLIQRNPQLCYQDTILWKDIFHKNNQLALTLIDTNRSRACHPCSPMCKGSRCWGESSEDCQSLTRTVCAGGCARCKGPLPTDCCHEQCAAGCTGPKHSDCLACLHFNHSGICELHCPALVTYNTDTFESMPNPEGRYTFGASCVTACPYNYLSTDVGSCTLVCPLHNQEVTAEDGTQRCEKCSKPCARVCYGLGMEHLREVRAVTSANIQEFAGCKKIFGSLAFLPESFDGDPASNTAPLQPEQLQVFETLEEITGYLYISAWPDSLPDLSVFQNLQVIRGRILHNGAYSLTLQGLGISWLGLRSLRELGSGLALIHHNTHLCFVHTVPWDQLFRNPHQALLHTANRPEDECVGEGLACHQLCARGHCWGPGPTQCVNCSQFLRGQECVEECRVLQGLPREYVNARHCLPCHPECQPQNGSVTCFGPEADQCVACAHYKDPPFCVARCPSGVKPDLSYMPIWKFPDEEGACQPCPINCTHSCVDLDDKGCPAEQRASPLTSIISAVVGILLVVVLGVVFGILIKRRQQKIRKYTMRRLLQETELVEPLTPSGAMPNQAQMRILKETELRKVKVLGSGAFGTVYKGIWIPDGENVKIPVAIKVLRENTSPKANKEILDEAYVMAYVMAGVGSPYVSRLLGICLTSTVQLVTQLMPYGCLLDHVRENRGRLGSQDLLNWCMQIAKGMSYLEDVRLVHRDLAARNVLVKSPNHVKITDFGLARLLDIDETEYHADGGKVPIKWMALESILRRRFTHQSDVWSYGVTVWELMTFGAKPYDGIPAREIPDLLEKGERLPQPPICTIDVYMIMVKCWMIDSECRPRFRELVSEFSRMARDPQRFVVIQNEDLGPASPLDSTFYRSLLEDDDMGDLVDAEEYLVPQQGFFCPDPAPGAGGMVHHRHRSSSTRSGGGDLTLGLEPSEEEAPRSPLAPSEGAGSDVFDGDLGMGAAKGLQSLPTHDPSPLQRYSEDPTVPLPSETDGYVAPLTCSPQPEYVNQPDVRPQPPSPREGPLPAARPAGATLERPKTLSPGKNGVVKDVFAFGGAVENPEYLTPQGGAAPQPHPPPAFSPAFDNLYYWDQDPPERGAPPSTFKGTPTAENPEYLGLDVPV
Summary of the method: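 Anti-proliferation: compound series (top 10,000 nM, 4-fold steps) was applied to Ba/F3-Her2 Exon20 YVMA cells grown without IL-3 for 72 h. Viability was read colorimetrically (CellTiter 96 Aqueous One, A490, 2 h reagent incubation).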

[5] = target: T5, human EGFR exon 20 insertion ASV (V769_D770insASV) (Homo sapiens, UniProt P00533, INS769ASV); assay: Ba/F3-EGFR-Exon20-ASV cell anti-proliferative assay (CellTiter 96 MTS, 72 h); conditions: Ba/F3-EGFR-Exon20-ASV cells
T5 construct: expressed in transfected cells; host or cells: Ba/F3 (murine pro-B) cells transduced with lentivirus from pLVX-IRES puro
T5 sequence (P00533 with tags, fused parts or gaps INS769ASV): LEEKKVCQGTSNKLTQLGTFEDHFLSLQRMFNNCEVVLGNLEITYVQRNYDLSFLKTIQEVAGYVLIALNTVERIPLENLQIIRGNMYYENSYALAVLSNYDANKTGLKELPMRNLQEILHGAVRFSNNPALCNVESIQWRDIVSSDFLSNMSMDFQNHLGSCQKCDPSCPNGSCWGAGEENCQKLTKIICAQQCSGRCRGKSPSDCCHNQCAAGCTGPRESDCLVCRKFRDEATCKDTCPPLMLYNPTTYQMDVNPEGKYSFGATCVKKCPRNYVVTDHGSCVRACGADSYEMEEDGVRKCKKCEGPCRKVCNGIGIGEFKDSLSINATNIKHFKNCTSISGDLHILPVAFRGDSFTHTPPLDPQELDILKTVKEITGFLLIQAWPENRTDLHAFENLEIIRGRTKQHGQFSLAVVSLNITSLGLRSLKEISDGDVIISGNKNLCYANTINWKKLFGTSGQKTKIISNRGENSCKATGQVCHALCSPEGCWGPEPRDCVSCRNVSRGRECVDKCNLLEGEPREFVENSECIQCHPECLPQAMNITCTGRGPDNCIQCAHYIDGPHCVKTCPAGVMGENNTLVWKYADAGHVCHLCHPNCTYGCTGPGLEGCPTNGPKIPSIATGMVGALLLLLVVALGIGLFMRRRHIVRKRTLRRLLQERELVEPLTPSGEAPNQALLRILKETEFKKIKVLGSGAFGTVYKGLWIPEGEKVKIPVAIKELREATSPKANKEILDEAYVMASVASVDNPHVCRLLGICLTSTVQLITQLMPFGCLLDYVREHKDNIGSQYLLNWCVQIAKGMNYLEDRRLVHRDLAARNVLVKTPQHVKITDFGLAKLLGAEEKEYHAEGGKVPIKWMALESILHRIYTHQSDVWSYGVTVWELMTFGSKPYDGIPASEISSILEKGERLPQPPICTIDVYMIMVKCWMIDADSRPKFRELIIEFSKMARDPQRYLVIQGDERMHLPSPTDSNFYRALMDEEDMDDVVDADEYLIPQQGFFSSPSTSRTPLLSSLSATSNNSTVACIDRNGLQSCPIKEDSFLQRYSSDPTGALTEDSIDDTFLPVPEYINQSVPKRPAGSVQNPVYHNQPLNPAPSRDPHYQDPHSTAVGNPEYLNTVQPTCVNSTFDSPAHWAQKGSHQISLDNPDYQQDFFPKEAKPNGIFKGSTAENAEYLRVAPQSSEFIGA
Summary of the method: as §1

T1 sequence (P00533 with tags, fused parts or gaps DEL746-750/T790M): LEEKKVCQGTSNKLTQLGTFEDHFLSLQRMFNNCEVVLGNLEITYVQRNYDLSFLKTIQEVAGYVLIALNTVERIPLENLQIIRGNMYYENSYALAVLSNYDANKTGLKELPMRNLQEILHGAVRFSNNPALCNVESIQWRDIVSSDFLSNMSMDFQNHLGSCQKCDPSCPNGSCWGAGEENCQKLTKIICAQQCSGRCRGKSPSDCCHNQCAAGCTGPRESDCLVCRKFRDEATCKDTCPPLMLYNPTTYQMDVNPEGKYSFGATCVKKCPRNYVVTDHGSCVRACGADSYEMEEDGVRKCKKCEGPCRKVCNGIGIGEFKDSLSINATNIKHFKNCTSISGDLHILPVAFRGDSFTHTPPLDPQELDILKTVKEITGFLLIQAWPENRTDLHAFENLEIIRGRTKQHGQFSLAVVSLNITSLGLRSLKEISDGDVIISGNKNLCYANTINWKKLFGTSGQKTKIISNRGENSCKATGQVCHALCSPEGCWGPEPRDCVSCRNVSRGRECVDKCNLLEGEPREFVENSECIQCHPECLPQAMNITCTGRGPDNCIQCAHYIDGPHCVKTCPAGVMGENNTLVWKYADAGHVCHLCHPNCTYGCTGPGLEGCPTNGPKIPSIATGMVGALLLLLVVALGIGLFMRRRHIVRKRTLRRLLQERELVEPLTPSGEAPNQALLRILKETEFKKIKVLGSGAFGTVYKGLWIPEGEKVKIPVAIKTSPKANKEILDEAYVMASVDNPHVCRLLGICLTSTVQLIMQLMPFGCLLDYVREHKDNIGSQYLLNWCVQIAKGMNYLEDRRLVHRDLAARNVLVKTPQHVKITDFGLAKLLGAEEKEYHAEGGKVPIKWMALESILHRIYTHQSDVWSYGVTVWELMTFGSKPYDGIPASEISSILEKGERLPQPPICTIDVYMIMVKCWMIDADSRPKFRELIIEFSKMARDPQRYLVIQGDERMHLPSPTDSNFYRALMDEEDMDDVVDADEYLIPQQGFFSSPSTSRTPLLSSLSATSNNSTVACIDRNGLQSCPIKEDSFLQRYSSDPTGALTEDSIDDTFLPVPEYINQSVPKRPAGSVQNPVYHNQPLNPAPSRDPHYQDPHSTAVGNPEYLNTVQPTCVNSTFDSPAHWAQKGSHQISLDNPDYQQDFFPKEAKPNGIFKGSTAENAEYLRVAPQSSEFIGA

IC50 [2]: < 100 nM
IC50 [4]: 100 to 500 nM
IC50 [5]: < 100 nM
SMILES: C=CC(=O)Nc1cc(Nc2ncc(Cl)c(-c3cn4c5c(cccc35)OCC4)n2)c(OC)cc1N(C)CCN(C)C [Example 76, N-(5-((5-chloro-4-(2,3-dihydro-[1,4]oxazino[2,3,4-hi]indol-6-yl)pyrimidin-2-yl)amino)-2-((2-(dimethylamino)ethyl)(methyl)amino)-4-methoxyphenyl)acrylamide]
EGFR exon 19 deletion and exon 20 T790M mutation IC50 [1]: A (IC50 value for the indicated mutant below about 100 nM)
EGFR exon 21 L858R and exon 20 T790M mutation IC50 [3]: A (IC50 value for the indicated mutant below about 100 nM)
